This is an account of results in article PMC11013038, “Design, Synthesis, and Evaluation of B-(Trifluoromethyl)phenyl Phosphine–Borane Derivatives as Novel Progesterone Receptor Antagonists” (Molecules, 2024).

The nature of data set [1]: LogP (1-octanol/water partition coefficient) determined using HPLC. In kind it is physicochemical. The note with it: HPLC (OECD guideline), C18 column, methanol–water 75% (v/v), 40 °C, mean of triplicate. On the procedure: Hydrophobicity is a key determinant of the activity and pharmacokinetics of biologically active compounds, and the octanol–water partition coefficient (P) and logarithm value (LogP) are widely used hydrophobicity parameters. The LogP values of the synthesized compounds were determined using HPLC [45, 46]. Table 1 summarizes the experimentally determined LogP values and calculated values. […] From the viewpoint of the phosphine structure, an increase in the number of carbon atoms increased hydrophobicity in a predictable manner.
The 1-octanol/water partition coefficient P was determined using HPLC based on the OECD Guideline for Testing Chemicals. A COSMOSIL Packed Column 5C18-MS-II (5 μm, 150 mm × 4.6 mm id, Nacalai Tesque, Inc., Kyoto, Japan) was fitted on an HPLC instrument (Multiwavelength Detector, MD-2010 Plus. JASCO, Tokyo, Japan) equipped with a pump (PU-2080, JASCO) and an oven (SSC-2120, Senshu Scientific Co., Ltd., Tokyo, Japan). The injection volume was 20 µL; the mobile phase was methanol–water 75% (v/v); and the flow rate was 1.0 mL/min in all cases. Compounds were detected by measuring the UV absorption at 240 nm. The temperature of the column was kept at 40.0 (± 0.1) °C during the measurement. The measurement was performed in triplicate, and the mean value was calculated. The dead time t0 was measured with thiourea as the unretained compound, and the capacity factor k was calculated using the equation logk = log (tr − t0/t0), where tr represents the retention time of the compound. A calibration graph was determined experimentally using reference compounds (4-methylphenol, 4-chlorophenol, 4-phenylphenol, diphenylether, fluoranthene, and dichlorodiphenyltrichloroethane) with known logP values. The LogP values of phosphine–boranes were calculated based on a calibration graph (LogP = 2.6269 logkw + 3.059, R^2 = 0.9915).

Data set [2] addresses T1, progesterone receptor (PR) (Homo sapiens, UniProt P06401).
T1 construct: alkaline phosphatase assay with the T47D human breast cancer cell line; endogenous in cells; host or cells: T47D
T1 sequence (P06401 1-933): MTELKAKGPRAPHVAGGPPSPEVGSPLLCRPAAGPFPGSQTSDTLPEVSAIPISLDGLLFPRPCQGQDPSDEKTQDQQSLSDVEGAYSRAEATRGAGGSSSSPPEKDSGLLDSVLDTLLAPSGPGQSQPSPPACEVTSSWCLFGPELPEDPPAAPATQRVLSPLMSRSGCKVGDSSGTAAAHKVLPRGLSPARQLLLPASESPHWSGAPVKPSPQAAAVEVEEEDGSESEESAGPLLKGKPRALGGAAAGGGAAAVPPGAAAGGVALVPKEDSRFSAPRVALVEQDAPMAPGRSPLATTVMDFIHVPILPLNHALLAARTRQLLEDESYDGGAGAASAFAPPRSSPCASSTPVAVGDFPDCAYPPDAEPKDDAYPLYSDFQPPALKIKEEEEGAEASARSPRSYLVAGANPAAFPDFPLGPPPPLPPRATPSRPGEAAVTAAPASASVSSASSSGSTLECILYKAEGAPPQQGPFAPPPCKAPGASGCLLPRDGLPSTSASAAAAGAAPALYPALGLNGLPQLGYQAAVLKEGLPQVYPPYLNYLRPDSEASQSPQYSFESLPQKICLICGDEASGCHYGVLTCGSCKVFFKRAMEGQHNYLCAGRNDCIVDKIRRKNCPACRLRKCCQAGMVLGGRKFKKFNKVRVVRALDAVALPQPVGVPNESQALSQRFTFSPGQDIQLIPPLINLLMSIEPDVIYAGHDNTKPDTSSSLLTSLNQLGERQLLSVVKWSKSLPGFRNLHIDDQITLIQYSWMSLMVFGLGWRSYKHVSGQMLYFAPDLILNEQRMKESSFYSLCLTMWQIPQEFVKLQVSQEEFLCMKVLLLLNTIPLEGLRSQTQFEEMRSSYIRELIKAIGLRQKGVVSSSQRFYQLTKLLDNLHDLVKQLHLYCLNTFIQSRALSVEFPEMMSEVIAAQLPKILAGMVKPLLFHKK
The data set is described as follows: T47D alkaline phosphatase assay, PR antagonistic activity in the presence of 1 nM P4. In kind it is cell-based. The note with it: for IC50: T47D cells, 1.0 nM P4, 48 h, mean ± SD from three independent experiments. As for the experimental part:
The PR agonistic and antagonistic activities of the synthesized phosphine–borane derivatives were evaluated using an alkaline phosphatase assay with the T47D human breast cancer cell line. […] The basal alkaline phosphatase activity was also not affected by the tested compounds alone. […] The PR antagonistic activities of the compounds were assessed in the presence of 1 nM of P4 (5). We also calculated the molecular volume of each compound to investigate the structure–activity relationship (SAR). Table 2 summarizes the PR antagonistic activity and calculated volumes of the synthesized compounds. […] We investigated the binding affinity of the compounds toward the PR ligand-binding domain (LBD) using a fluorescence polarization assay system. […] We also investigated the activity of compounds 28 and 34 toward the androgen receptor (AR) by means of cell-proliferation promoting/inhibitory activity toward androgen-dependent SC-3 cells. […].
T47D alkaline phosphatase assays were performed as previously described, with minor modifications. Briefly, the human breast cancer cell line T47D (HMS LINCS database Accession Numbers: 50541) was routinely cultivated in RPMI 1640 medium with 10% FBS at 37 °C in a 5% CO2 humidified incubator. The cells were plated in 96-well plates and incubated overnight in a 5% CO2 humidified incubator at 37 °C. The next day, the cells were treated with a fresh medium containing the test compound in the presence of 1 nM of progesterone and further incubated for 48 h. The medium was aspirated, and the cells were fixed with 100 μL of 1.8% formalin–PBS. The fixed cells were washed with PBS, and 100 μL of an assay buffer (1 mg/mL p-nitrophenol phosphate in diethanolamine water solution, pH 9.0) was added. The mixture was incubated at room temperature for 2 h under light-shielded conditions. The absorbance was measured at 405 nm using a DTX 880 Multimode Detector (Beckman Coulter, Brea, CA, USA). All data points were measured in triplicate, and IC50 values were calculated from three independent experiments.

A word on the chromatographic logP: it is lipophilicity estimated from chromatographic retention. A low value points to lower lipophilicity. One may read the IC50 as the midpoint of a concentration-inhibition curve. In general, melting point refers to the temperature of the solid-liquid transition.

`C[P+](C)(C)[BH2-]c1ccc(C(F)(F)F)cc1` [Compound 28, B-4-(Trifluoromethyl)phenyl Trimethylphosphine–Borane]: the chromatographic logP in data set [1] came to 3.65. For the same compound, in data set [2], the IC50 was over 10000 nM.

`FC(F)(F)c1ccc([BH2-][P+](C2CC2)(C2CC2)C2CC2)cc1` [Compound 34, B-4-(Trifluoromethyl)phenyl Tricyclopropylphosphine–Borane]: the melting point lay in the range of 72.6 to 72.8 °C. The chromatographic logP in data set [1] amounted to 5.32. For the same compound, in data set [2] (T47D alkaline phosphatase assay, comparison of IC50), the “potency relative to triisopropylphosphine derivative 32” value is “approximately three times more potent”. Further, the IC50 in data set [2] turned out to be 540 ± 90 nM.
